Experiments:
[1] = test system: layer V pyramidal neurons; assay: Voltage-sensitive dye imaging of action potentials in intracellularly stained pyramidal neurons in brain slices; assay type: cell-based, Sprague Dawley rats; details: for dF/F at 633 nm / dF/F at 658 nm: backpropagating AP, %; for dF/F at 633 nm / dF/F at 658 nm / voltage sensitivity compared with red dye: basal dendrites 80-150 μm from soma; for dF/F at 633 nm / S/N ratio at 633 nm: laser spot 633 nm; for dF/F at 658 nm / S/N ratio at 658 nm: laser spot 658 nm
Source text: Sprague Dawley rats (P21-42) were anesthetized with isoflurane, decapitated, and the brains were removed with the head immersed in ice-cold, artificial cerebrospinal fluid (ACSF), according to an animal protocol approved by the Center for Laboratory Animal Care, University of Connecticut. Brain slices (300 μm) were cut from frontal lobes in the coronal plane. ACSF contained (in mM) 125 NaCl, 26 NaHCO3, 10 glucose, 2.3 KCl, 1.26 KH2PO4, 2 CaCl2 and 1 MgSO4, pH 7.4. Whole-cell recordings were made from visually identified layer V pyramidal neurons on the medial part of the slice. Intracellular solution contained (in mM) 135 K-gluconate, 2 MgCl2, 3 Na2-ATP, 10 Na2-phosphocreatine, 0.3 Na2-GTP and 10 Hepes (pH 7.3, adjusted with KOH). Electrical signals were amplified with Multiclamp 700A and digitized with two input boards: (1) Digidata Series 1322A (Axon Instruments) at 5 kHz, and (2) Neuroplex (RedShirtImaging) at 2.7 kHz sampling rate. Only cells with a membrane potential more hyperpolarized than −50 mV, and action potential amplitudes exceeding 80 mV (measured from the base line) were included in this study. All experiments were performed on layer 5 cortical pyramidal cells at 34° C.
Blue dyes were stored in ethanol stock solution at −20° C. On the day of the recording blue dyes were dissolved in standard K-gluconate based intracellular solution. A loading pipette was filled with two varieties of the same intracellular solution; one with and one without dye. Dye-free solution was occupying the very tip of the pipette, while the back of the pipette lumen was microloaded with dye-rich solution. The purpose of dye-free solution in the tip of the patch pipette was to prevent dye-leak during the maneuver through brain slice tissue. VSD styryl dyes are lipophilic and bind indiscriminately and irreversibly to all membranes around the neuron of interest. Even a small amount of dye that leaks out of the pipette during the formation of the gigaohm seal, can generate strong fluorescent background. Fluorescent light emanating from surrounding tissue has a devastating effect on dendritic optical signals. Elimination of the background fluorescence is critical for dendritic voltage imaging. How much dye-free solution one should put in the tip depends on time period between the submersion of the patch pipette into the recording chamber and formation of the gigaohm seal. The faster one can perform this maneuver the less dye-free solution she needs to achieve optimal staining.
Blue VSD were injected at room temperature for 25-60 minutes. The filling pipette was carefully pulled out (outside-out patch) and brain slices were left to incubate for 20-120 minutes at room temperature. Just before optical recordings the cells were re-patched with dye-free pipette at the physiological temperature (34° C.).
Voltage-sensitive dye imaging was performed on a Zeiss Axioskope 2FS microscope equipped with NeuroCCD camera (RedShirtImaging). We used Zeiss 40× objective IR-Achroplan 0.80 W. The size of the square visual field captured by NeuroCCD camera was 384×384 um. In the place of the arc lamp (normally used for epi-illumination), we inserted a 200 μm fiber optic guide with a collimator. Laser beam was focused on the other side of the fiber optic guide using a microscope objective-like lens. This arrangement produced a motionless spot of laser light (˜25 μm in diameter) at the object plane. An illuminated section of the brain slice, projected onto the NeuroCCD camera, covered approximately 25 pixels when used with 40× objective lens. At this magnification, one pixel sampled a 4.8×4.8 square in the object plane. A region of interest (ROI) was brought into the laser spot using X-Y microscope platform. The laser beam was interrupted by an electro-programmable shutter (Uniblitz®). Attention was made to limit the exposure time during the recording and positioning of the neuron.

[2] = One-photon absorption and emission spectra in multilamellar lipid vesicles, water and ethanol; assay type: physicochemical; details: for Absorbance MLV: multilamellar lipid vesicles; for 1PF Abs. Max / 1PF Em. Max: one photon, soybean multi-lamellar lipid vesicles
Source text: […] The column indicating relative signal change for one-photon fluorescence also lists the excitation light source used and the lower bounds of the long-pass emission detected.
Absorption and emission spectra were obtained for a series of dyes with different acceptors: pyridinium (PY-1261), quinolinium (PY-212), and acridinium (PY-2240).

Row | Absorbance ethanol [2] | Absorbance MLV [2] | 1PF Abs. Max [2] | 1PF Em. Max [2] | Absorbance water [2] | Compound | dF/F at 633 nm [1] | dF/F at 658 nm [1] | voltage sensitivity compared with red dye [1] | S/N ratio at 633 nm [1] | S/N ratio at 658 nm [1] | polarity of optical signal at 532 nm excitation [1] | polarity of optical signal at 658 nm excitation [1]
1 | 616 nm | 547 nm | 547 nm | 692 nm | 567 nm | CCCN(CCC)c1ccc(-c2ccc(/C=C/c3cc[n+](CCC[N+](CC)(CC)CC)cc3)s2)s1 [PY-1286, Di-3-BTEPPTEA] | 13.67 ± 2.89% | 7.64 ± 2.20% | better sensitivity than red dye JPW-3028 | 4.53 ± 0.95 | 5.13±2.31 |  | 
2 | 614 nm | 547 nm | 547 nm | 686 nm | 539 nm | CCN(CC)c1ccc(-c2ccc(/C=C/c3cc[n+](CCC[N+](CC)(CC)CC)cc3)s2)s1 [PY-1261, Di-2-BTEPPTEA] |  | 7.91 ± 1.57% | better sensitivity than red dye JPW-3028 |  | 5.38 ± 1.86 |  | 
3 | 624 nm | 552 nm | 552 nm | 694 nm | 555 nm | CCCCN(CCCC)c1ccc(-c2ccc(/C=C/c3cc[n+](CCC[N+](CC)(CC)CC)cc3)s2)s1 [PY-1266, Di-4-BTEPPTEA] | 10.41 ± 2.80% | 8.32 ± 2.13% | better sensitivity than red dye JPW-3028 | 4.77 ± 1.35 | 5.22 ± 1.32 | positive signals | positive signals
